Reference: PubChem BioAssay AID1963981 (Molecular Pharmacology Branch, DTP, NCI, 2024)

Test system: 354836-022-R-J1-PDC multicell spheroid viability
Experiment: Anticancer human tumor 354836-022-R-J1-PDC patient-derived head and neck squamous cell carcinoma cell line growth inhibition [PI3K]
Conditions: for IC50: curve of first compound; for viability, T/C: stronger effect = lower value
Outline: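 Agents were dosed from a top concentration near clinical Cmax (otherwise 10 microM) in half-log decrements, alone or combined with PI3K inhibitors. The spheroids contain tumor cells plus endothelial (HUVEC) and MSC stroma; viability is measured.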

[1] = second compound 0.00316 µM, first compound 0.0316 µM
[2] = second compound 0.00316 µM, first compound 0.1 µM
[3] = second compound 0.00316 µM, first compound 0.316 µM
[4] = second compound 0.00316 µM, first compound 1 µM
[5] = second compound 0.01 µM, first compound 0.0316 µM
[6] = second compound 0.01 µM, first compound 0.1 µM
[7] = second compound 0.01 µM, first compound 0.316 µM
[8] = second compound 0.01 µM, first compound 1 µM
[9] = second compound 0.0316 µM, first compound 0.0316 µM
[10] = second compound 0.0316 µM, first compound 0.1 µM
[11] = second compound 0.0316 µM, first compound 0.316 µM
[12] = second compound 0.0316 µM, first compound 1 µM
[13] = second compound 0.1 µM, first compound 0.0316 µM
[14] = second compound 0.1 µM, first compound 0.1 µM
[15] = second compound 0.1 µM, first compound 0.316 µM
[16] = second compound 0.1 µM, first compound 1 µM
[17] = second compound 0.316 µM, first compound 0.0316 µM
[18] = second compound 0.316 µM, first compound 0.1 µM
[19] = second compound 0.316 µM, first compound 0.316 µM
[20] = second compound 0.316 µM, first compound 1 µM
[21] = second compound 1 µM, first compound 0.0316 µM
[22] = second compound 1 µM, first compound 0.1 µM
[23] = second compound 1 µM, first compound 0.316 µM
[24] = second compound 1 µM, first compound 1 µM
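Further: spheroids exposed to agents for seven days before the viability read.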

## CC(C)NCC(C(=O)N1CCN(c2ncnc3c2C(C)CC3O)CC1)c1ccc(Cl)cc1 (centres undefined) + COc1c(OCCCN2CCOCC2)ccc2c3n(c(=NC(=O)c4cnc(N)nc4)nc12)CCN3
Second compound 0.00316 µM
  IC50: 305 nM
Second compound 0.01 µM
  IC50: 227 nM
Second compound 0.0316 µM
  IC50: 119 nM
Second compound 0.1 µM
  IC50: < 31.6 nM
Second compound 0.316 µM
  IC50: < 31.6 nM
Second compound 1 µM
  IC50: < 31.6 nM
[1]
  viability, T/C: 90.8%
[2]
  viability, T/C: 68.1%
[3]
  viability, T/C: 52.3%
[4]
  viability, T/C: 28.5%
Second compound 0.00316 µM, first compound 3.16 µM
  viability, T/C: 9.34%
Second compound 0.00316 µM, first compound 10 µM
  viability, T/C: 2.4%
[5]
  viability, T/C: 87.6%
[6]
  viability, T/C: 66.5%
[7]
  viability, T/C: 42.9%
[8]
  viability, T/C: 24.8%
Second compound 0.01 µM, first compound 3.16 µM
  viability, T/C: 9.85%
Second compound 0.01 µM, first compound 10 µM
  viability, T/C: 2.96%
[9]
  viability, T/C: 68.8%
[10]
  viability, T/C: 52.7%
[11]
  viability, T/C: 34.5%
[12]
  viability, T/C: 19.4%
Second compound 0.0316 µM, first compound 3.16 µM
  viability, T/C: 7.83%
Second compound 0.0316 µM, first compound 10 µM
  viability, T/C: 2.13%
[13]
  viability, T/C: 43%
[14]
  viability, T/C: 39.6%
[15]
  viability, T/C: 26.3%
[16]
  viability, T/C: 13.3%
Second compound 0.1 µM, first compound 3.16 µM
  viability, T/C: 3.65%
Second compound 0.1 µM, first compound 10 µM
  viability, T/C: 1.29%
[17]
  viability, T/C: 11.6%
[18]
  viability, T/C: 11.2%
[19]
  viability, T/C: 5.73%
[20]
  viability, T/C: 3.46%
Second compound 0.316 µM, first compound 3.16 µM
  viability, T/C: 1.76%
Second compound 0.316 µM, first compound 10 µM
  viability, T/C: 0.91%
[21]
  viability, T/C: 1.35%
[22]
  viability, T/C: 1.54%
[23]
  viability, T/C: 1.33%
[24]
  viability, T/C: 1.12%
Second compound 1 µM, first compound 3.16 µM
  viability, T/C: 1.14%
Second compound 1 µM, first compound 10 µM
  viability, T/C: 0.88%

## CCN1CCN(Cc2ccc(Nc3ncc(F)c(-c4cc(F)c5nc(C)n(C(C)C)c5c4)n3)nc2)CC1 + COc1c(OCCCN2CCOCC2)ccc2c3n(c(=NC(=O)c4cnc(N)nc4)nc12)CCN3
Second compound 0.00316 µM
  IC50: 656 nM
Second compound 0.01 µM
  IC50: 642 nM
Second compound 0.0316 µM
  IC50: 342 nM
Second compound 0.1 µM
  IC50: < 3.16 nM
Second compound 0.316 µM
  IC50: < 3.16 nM
Second compound 1 µM
  IC50: < 3.16 nM
Second compound 0.00316 µM, first compound 0.00316 µM
  viability, T/C: 97.2%
Second compound 0.00316 µM, first compound 0.01 µM
  viability, T/C: 86.5%
[1]
  viability, T/C: 98.3%
[2]
  viability, T/C: 99.3%
[3]
  viability, T/C: 71.5%
[4]
  viability, T/C: 37.6%
Second compound 0.01 µM, first compound 0.00316 µM
  viability, T/C: 98%
Second compound 0.01 µM, first compound 0.01 µM
  viability, T/C: 101%
[5]
  viability, T/C: 96%
[6]
  viability, T/C: 81.1%
[7]
  viability, T/C: 83.5%
[8]
  viability, T/C: 31.7%
Second compound 0.0316 µM, first compound 0.00316 µM
  viability, T/C: 78.5%
Second compound 0.0316 µM, first compound 0.01 µM
  viability, T/C: 74.4%
[9]
  viability, T/C: 72.6%
[10]
  viability, T/C: 65.2%
[11]
  viability, T/C: 53.5%
[12]
  viability, T/C: 20.9%
Second compound 0.1 µM, first compound 0.00316 µM
  viability, T/C: 46.6%
Second compound 0.1 µM, first compound 0.01 µM
  viability, T/C: 41.8%
[13]
  viability, T/C: 46.5%
[14]
  viability, T/C: 36.6%
[15]
  viability, T/C: 30.4%
[16]
  viability, T/C: 6.41%
Second compound 0.316 µM, first compound 0.00316 µM
  viability, T/C: 11.8%
Second compound 0.316 µM, first compound 0.01 µM
  viability, T/C: 10.4%
[17]
  viability, T/C: 12.9%
[18]
  viability, T/C: 8.98%
[19]
  viability, T/C: 5.99%
[20]
  viability, T/C: 2.69%
Second compound 1 µM, first compound 0.00316 µM
  viability, T/C: 1.43%
Second compound 1 µM, first compound 0.01 µM
  viability, T/C: 1.38%
[21]
  viability, T/C: 1.41%
[22]
  viability, T/C: 1.78%
[23]
  viability, T/C: 1.38%
[24]
  viability, T/C: 1.22%
